ChEMBL document CHEMBL5370614, “Antimalarial Lanostane Dimers from Artificially Cultivated Fruiting Bodies of Ganoderma weberianum” (J Nat Prod, 2023)

Key:
Plasmodium falciparum = test: Antimalarial activity against multi-drug resistant Plasmodium falciparum K1 infected in human erythrocytes assessed as parasite growth inhibition incubated for 24 hrs by [G-3H]hypoxanthine uptake assay; assay type: functional, organism-based; conditions: K1, Erythrocyte
[1] = Cytotoxicity against African green monkey Vero cells assessed as cell growth inhibition by GFP fluorescence based assay; assay type: toxicity; conditions: African green monkey (Chlorocebus sabaeus)

| SMILES | IC50 (Plasmodium falciparum) [µM] | IC50 [1] [µM] |
| --- | --- | --- |
| C[C@H](CC[C@@H](O)[C@@](C)(O)CO)[C@H]1CC[C@@]2(C)C3=CC[C@H]4C(C)(C)C(=O)CC[C@]4(C)C3=CC[C@]12C | > 21 | > 106 |
| C[C@H](CC[C@@H](OC(=O)[C@@H](C)CC(=O)C[C@@H](C)[C@H]1C[C@@H](O)[C@@]2(C)C3=C(C(=O)C[C@]12C)[C@@]1(C)CC[C@@H](O)C(C)(C)[C@@H]1CC3=O)[C@@](C)(O)CO)[C@H]1CC[C@@]2(C)C3=C(CC[C@]12C)[C@@]1(C)CCC(=O)C(C)(C)[C@@H]1C[C@H]3O | 0.67 | 17 |
| C[C@H](CC(=O)C[C@@H](C)[C@H]1C[C@@H](O)[C@@]2(C)C3=C(C(=O)C[C@]12C)[C@@]1(C)CCC(=O)C(C)(C)[C@@H]1CC3=O)C(=O)O[C@H](CC[C@@H](C)[C@H]1CC[C@@]2(C)C3=CC[C@H]4C(C)(C)C(=O)CC[C@]4(C)C3=CC[C@]12C)[C@@](C)(O)CO | 2.33 | 9 |
| C.C[C@H](CC[C@@H](OC(=O)[C@@H](C)CC(=O)C[C@@H](C)[C@H]1C[C@@H](O)[C@@]2(C)C3=C(C(=O)C[C@]12C)[C@@]1(C)CC[C@@H](O)C(C)(C)[C@@H]1CC3=O)[C@@](C)(O)CO)[C@H]1CC[C@@]2(C)C3=CC[C@H]4C(C)(C)C(=O)CC[C@]4(C)C3=CC[C@]12C | 1.3 | 9.2 |
| C[C@H](CC(=O)C[C@H](C)C(=O)O)[C@H]1C[C@H](O)[C@@]2(C)C3=C(C(=O)C[C@]12C)[C@@]1(C)CCC(=O)C(C)(C)[C@@H]1C[C@H]3O | 19 | > 97 |
| C[C@H](CC(=O)C[C@H](C)C(=O)O)[C@H]1C[C@H](O)[C@@]2(C)C3=C(C(=O)C[C@]12C)[C@@]1(C)CC[C@@H](O)C(C)(C)[C@@H]1CC3=O | > 19 | > 97 |
| C[C@H](CC(=O)C[C@H](C)C(=O)O[C@@H](CC[C@@H](C)[C@H]1C[C@H](O)[C@@]2(C)C3=C(CC[C@]12C)[C@@]1(C)CCC(=O)C(C)(C)[C@@H]1CC3)[C@](C)(O)CO)[C@H]1C[C@@H](O)[C@@]2(C)C3=C(C(=O)C[C@]12C)[C@@]1(C)CC[C@@H](O)C(C)(C)[C@@H]1CC3=O | 0.23 | 13 |
| C[C@H](CC[C@H](O)[C@](C)(O)COC(=O)[C@@H](C)CC(=O)C[C@@H](C)[C@H]1C[C@@H](O)[C@@]2(C)C3=C(C(=O)C[C@]12C)[C@@]1(C)CC[C@@H](O)C(C)(C)[C@@H]1CC3=O)[C@H]1CC[C@@]2(C)C3=CC[C@H]4C(C)(C)C(=O)CC[C@]4(C)C3=CC[C@]12C | 3.3 | 24 |
| C[C@H](CC(=O)C[C@H](C)C(=O)O)[C@H]1C[C@H](O)[C@@]2(C)C3=C(C(=O)C[C@]12C)[C@@]1(C)CC[C@@H](O)C(C)(C)[C@@H]1CC3 | > 20 | > 100 |
| C[C@H](CC[C@@H](O)[C@@](C)(O)COC(=O)[C@@H](C)CC(=O)C[C@@H](C)[C@H]1C[C@@H](O)[C@@]2(C)C3=C(C(=O)C[C@]12C)[C@@]1(C)CCC(=O)C(C)(C)[C@@H]1CC3=O)[C@H]1CC[C@@]2(C)C3=CC[C@H]4C(C)(C)C(=O)CC[C@]4(C)C3=CC[C@]12C | 1.09 | > 52 |
| C[C@H](CC(=O)C[C@H](C)C(=O)OC[C@@](C)(O)[C@@H](O)CC[C@@H](C)[C@H]1C[C@H](O)[C@@]2(C)C3=C(CC[C@]12C)[C@@]1(C)CCC(=O)C(C)(C)[C@@H]1CC3)[C@H]1C[C@@H](O)[C@@]2(C)C3=C(C(=O)C[C@]12C)[C@@]1(C)CCC(=O)C(C)(C)[C@@H]1CC3=O | 0.035 | 19 |
| C[C@H](CC[C@H](O)[C@](C)(O)COC(=O)[C@@H](C)CC(=O)C[C@@H](C)[C@H]1C[C@@H](O)[C@@]2(C)C3=C(C(=O)C[C@]12C)[C@@]1(C)CCC(=O)C(C)(C)[C@@H]1CC3=O)[C@H]1CC[C@@]2(C)C3=CC[C@H]4C(C)(C)C(=O)CC[C@]4(C)C3=CC[C@]12C | 0.77 | > 52 |
| C[C@H](CC(=O)C[C@H](C)C(=O)O)[C@H]1C[C@H](O)[C@@]2(C)C3=C(C(=O)C[C@]12C)[C@@]1(C)CCC(=O)C(C)(C)[C@@H]1CC3=O | > 19 | > 97 |
| C[C@H](CC(=O)C[C@H](C)C(=O)O[C@@H](CC[C@@H](C)[C@H]1C[C@H](O)[C@@]2(C)C3=C(CC[C@]12C)[C@@]1(C)CCC(=O)C(C)(C)[C@@H]1CC3)[C@](C)(O)CO)[C@H]1C[C@@H](O)[C@@]2(C)C3=C(C(=O)C[C@]12C)[C@@]1(C)CCC(=O)C(C)(C)[C@@H]1CC3=O | 0.057 | 8.1 |
| C[C@H](CC(=O)C[C@H](C)C(=O)O)[C@H]1C[C@H](O)[C@@]2(C)C3=C(C(=O)C[C@]12C)[C@@]1(C)CCC(=O)C(C)(C)[C@@H]1CC3 | > 20 | > 100 |
| C[C@H](CC[C@H](OC(=O)[C@@H](C)CC(=O)C[C@@H](C)[C@H]1C[C@@H](O)[C@@]2(C)C3=C(C(=O)C[C@]12C)[C@@]1(C)CC[C@@H](O)C(C)(C)[C@@H]1CC3=O)[C@](C)(O)CO)[C@H]1CC[C@@]2(C)C3=C(CC[C@]12C)[C@@]1(C)CCC(=O)C(C)(C)[C@@H]1C[C@H]3O | 0.39 | 2.3 |
| C[C@H]1[C@@H](O)O[C@@H]2O[C@@]3(C)CC[C@H]4[C@H](C)CC[C@@H]1[C@@]24OO3 [ARTENIMOL] | 0.002 |  |
| Cc1c2ccncc2c(C)c2c1[nH]c1ccccc12 [ELLIPTECINE] |  | 2.9 |
| C[C@H](CC[C@H](O)[C@](C)(O)CO)[C@H]1CC[C@@]2(C)C3=CC[C@H]4C(C)(C)C(=O)CC[C@]4(C)C3=CC[C@]12C [GANODERMANONTRIOL] | > 21 | > 106 |
